# Results as given in paper PMC5790467, “Enhanced anti-tumor efficacy and mechanisms associated with docetaxel-piperine combination- in vitro and in vivo investigation using a taxane-resistant prostate cancer model” (Oncotarget, 2017).
# Where two headings read alike, the source gives them in different places.
# What was measured:
# PC3 tumor xenografts = test: Tumor growth in mice with PC3 tumor xenografts; format: in vivo, ICR-NOD/SCID mice; conditions: DTX 20 mg/kg once a week i.v., n = 3
# Method: (§1) The following experimental protocol was adopted after approval by the Animal Research Ethics Committee at the Chinese University of Hong Kong. PC3 and PC3-TxR cells were cultured in RPMI 1640 medium containing 10% FBS and 1% penicillin-streptomycin in a humidified atmosphere of 5% CO2 at 37°C. PC3 and PC3-TxR cell pellets were re-suspended in serum free RPMI1640 and diluted by Matrigel™ Basement Membrane Matrix (BD Biosciences, Bedford, MA, USA) to the density of 3.33 × 10^6cells/ml. Male ICR-NOD/SCID mice (Laboratory Animal Services Center at the Chinese University of Hong Kong) weighing 25 to 30 g (age 6–8 weeks) was anesthetized with an intraperitoneal injection of a cocktail containing 87 mg/kg ketamine and 8.7 mg/kg xylazine (diluted with saline and the injection volume was about 0.1 ml). The cell suspension was injected subcutaneously to both the left and right flank region. The tumors were allowed to grow for about 2 weeks. Tumor volumes were measured twice per week (tumor volume = [(W^2 × L)/2], where W is the tumor measurement at the widest point, and L is the tumor dimension at the longest point). When the tumors reach about 100 mm^3, treatment was started and the date was designated as Day 0.
# PC3-TxR tumor xenografts = test: Tumor growth in mice with PC3-TxR (taxane-resistant) tumor xenografts; format: in vivo, ICR-NOD/SCID mice; conditions: DTX 20 mg/kg once a week i.v.
# Method: as §1
# [1] = Body weight and tolerability in mice with TxR tumor xenografts; conditions: TxR tumor xenograft mice; two weeks of treatment; control 96%
# Method: For oral administration of PIP, in 1 ml of PIP dosing solution, 100 µl of its stock solution was solubilized with 500 µl of PEG 400 and 400 µl of physiological saline and the mixture was administrated orally to mice at the dose of 0.1 ml/10 g body weight. […] On Day 0, mice with PC3 cell xenografts were divided into two groups and mice with PC3-TxR cell xenografts were divided into four groups. Mice in each group were treated according to Supplementary Table 3 and the drug dosing lasted for 2 weeks with body weight and tumor sized measured twice per week. […] At the end of experiment, the mice were anesthetized followed by haemospasia to death by cardiac puncture.
# [2] = DTX concentration in plasma and tissues of TxR tumor bearing mice (LC/MS/MS); format: in vivo, ICR-NOD/SCID mice; conditions: for concentration at 2 h: ICR-NOD/SCID, mouse, iv, 20 mg/kg
# Method: On Day 14, mice were sacrificed two hours post drug administration. Blood samples were collected by cardiac puncture followed by centrifugation at 5000 rpm for 3 min for obtaining the plasma. Brain, lung, liver, kidney and tumor were collected and weighed. About 100 mg of each tissue samples were carefully weighed and homogenized after being spiked with 300 µl of formic acid (0.2%, v/v). About 50 µl of plasma or tissue homogenates were spiked with 5 µl of 50% acetonitrile in water and 150 µl of mixture of acetonitrile and methanol (50:50, v/v) containing glibenclamide at 50 ng/ml as internal standard. After centrifugation at 13000 rpm for 10 min, the supernatants were injected into LC/MS/MS system which consisted of an Agilent 6430 triple quadrupole mass spectrometer equipped with an electrospray ionization source (ESI), two Agilent 1290 series pumps and autosampler (Agilent Technologies, Inc., CA, USA). The analytes were separated using a Waters Nova-Pak^ÒC18 column (150 mm×3.9 mm, i.d., 4 µm particle size) protected by a collared frit (4/4.6 mm i.d., 0.5 µm pore size, Thermo Scientific full name, city, state, country). The mobile phase consisted of 0.2% formic acid and acetonitrile (50:50, v/v) with a flow rate at 0.4 ml/min.
# PC3-TxR cells = test: Cell viability (cytotoxicity) of PC3-TxR cells; format: cell-based; conditions: Homo sapiens
# From the text: www.impactjournals.com/oncotarget/ Oncotarget, Supplementary Materials 2017
# investigation using a taxane-resistant prostate cancer model
# Supplementary Figure 1: Cell viability (measured from triplicate samples) of PC3-TxR cells. (A) The cytotoxicity of PIP
# (1 picture or pasted object on this page, not shown here)
# P-gp = P-gp (Homo sapiens, UniProt P08183); test: Uptake of DTX in MDCK/MDR1 cells with or without PIP pre-incubation; format: cell-based; set-up: expressed in transfected cells; host or cells: MDCK (MDCK/MDR1), gift from Prof; P. Borst
# Method: MDCK cells transfected with human gene (MDCK/MDR1) were cultured in Dulbecco’s modified Eagle’s medium supplemented with 10% FBS and 1% penicillin-streptomycin. Cells were subcultured when the confluence reached 80% by trypsinization with 0.25% of trypsin-EDTA. MDCK/MDR1 cells were seeded at a density of 2 × 10^5 cells/well to 24-well and incubated for 24 h. […] After washing twice with ice-cold HBSS, cells were collected in 100 µl of formic acid (0.2%, v/v) using a scraper. BCA Protein Quantification Kit (Abcamplc., Cambridge, UK) was used to quantify the protein content. Cell lysate was treated by 300 µl of mixture of acetonitrile and methanol (50:50, v/v) containing glibenclamide at 50 ng/ml, followed by sonication for 15 min.
# [3] = ketoconazole 200 mg once daily for three days; cancer patients; cited from earlier work
# [4] = Day 14, two hours after i.v. bolus DTX, TxR mice
# P-gp, sequence (P08183 whole entry): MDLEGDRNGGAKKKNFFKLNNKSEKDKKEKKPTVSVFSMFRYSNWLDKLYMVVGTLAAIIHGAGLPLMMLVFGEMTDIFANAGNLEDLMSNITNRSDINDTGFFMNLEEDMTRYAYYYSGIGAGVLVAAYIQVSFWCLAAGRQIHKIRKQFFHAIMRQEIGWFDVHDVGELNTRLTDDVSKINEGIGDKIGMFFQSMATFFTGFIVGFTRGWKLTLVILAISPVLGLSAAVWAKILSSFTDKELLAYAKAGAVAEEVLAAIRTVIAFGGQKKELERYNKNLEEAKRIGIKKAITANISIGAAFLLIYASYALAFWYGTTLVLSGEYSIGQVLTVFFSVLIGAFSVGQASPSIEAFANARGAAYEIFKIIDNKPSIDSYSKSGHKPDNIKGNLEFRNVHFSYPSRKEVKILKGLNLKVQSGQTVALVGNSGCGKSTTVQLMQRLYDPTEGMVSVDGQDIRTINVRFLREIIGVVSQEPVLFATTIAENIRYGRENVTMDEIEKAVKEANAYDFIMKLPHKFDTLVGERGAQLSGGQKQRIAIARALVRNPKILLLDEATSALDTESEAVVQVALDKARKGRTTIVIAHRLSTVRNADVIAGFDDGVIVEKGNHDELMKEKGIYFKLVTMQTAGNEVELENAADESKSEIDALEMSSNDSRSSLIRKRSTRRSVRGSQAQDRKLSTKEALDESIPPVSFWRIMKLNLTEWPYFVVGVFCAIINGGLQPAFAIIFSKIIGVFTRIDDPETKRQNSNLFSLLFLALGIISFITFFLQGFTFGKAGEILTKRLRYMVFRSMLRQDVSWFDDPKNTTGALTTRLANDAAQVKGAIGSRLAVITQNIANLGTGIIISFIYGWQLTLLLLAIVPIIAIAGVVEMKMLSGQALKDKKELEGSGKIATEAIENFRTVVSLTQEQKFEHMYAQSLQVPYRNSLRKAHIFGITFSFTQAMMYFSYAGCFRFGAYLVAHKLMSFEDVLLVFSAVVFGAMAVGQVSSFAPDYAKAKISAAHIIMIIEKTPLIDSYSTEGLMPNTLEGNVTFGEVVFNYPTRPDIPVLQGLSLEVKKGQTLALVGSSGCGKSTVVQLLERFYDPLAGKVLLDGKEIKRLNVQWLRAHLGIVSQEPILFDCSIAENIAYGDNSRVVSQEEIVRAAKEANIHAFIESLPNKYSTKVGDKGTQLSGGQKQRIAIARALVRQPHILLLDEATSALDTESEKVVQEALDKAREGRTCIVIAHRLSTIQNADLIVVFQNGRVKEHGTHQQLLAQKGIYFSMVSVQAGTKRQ
compound,measurement,setting,value
"CC(=O)O[C@@]12CO[C@@H]1C[C@H](O)[C@@]1(C)C(=O)[C@H](O)C3=C(C)[C@@H](OC(=O)[C@H](O)[C@@H](NC(=O)OC(C)(C)C)c4ccccc4)C[C@@](O)([C@@H](OC(=O)c4ccccc4)[C@H]21)C3(C)C [DTX, Docetaxel]",percentage of tumor size increase,PC3 tumor xenografts,55%
same,percentage of tumor size increase,"PC3-TxR tumor xenografts; TxR tumor xenografts, two weeks after drug administration, PIP 50 mg/kg daily p.o.",217%
same,inhibitory effect on the tumor growth in TxR tumor xenografts,"PC3-TxR tumor xenografts; model verification experiment, n = 3",no inhibitory effect
same,percentage of bodyweights,[1],79%
same,DTX plasma concentration,[2]; [4],703.847 ± 311.129 ng/mL
same,"DTX tissue concentration, Brain",[2]; [4],0.022 ± 0.009 ng/mg
same,"DTX tissue concentration, Kidney",[2]; [4],2.322 ± 1.447 ng/mg
same,"DTX tissue concentration, Liver",[2]; [4],1.080 ± 0.763 ng/mg
same,"DTX tissue concentration, Tumor",[2]; [4],1.312 ± 0.754 ng/mg
same,concentration at 2 h,[2]; brain,22 ng/g
same,concentration at 2 h,[2]; kidney,2320 ng/g
same,concentration at 2 h,[2]; liver,1080 ng/g
same,concentration at 2 h,[2]; lung,5160 ± 2890 ng/g
same,concentration at 2 h,[2]; plasma,704 ng/mL
same,concentration at 2 h,[2]; tumor,1310 ng/g
same,IC50,"PC3-TxR cells; read-out: IC50 of DTX on PC3-TxR, DTX + 5 μg/ml PIP",17.6 nM
same,IC50,"PC3-TxR cells; read-out: IC50 of DTX on PC3-TxR, DTX + 10 μg/ml PIP",10.4 nM
same,IC50,"PC3-TxR cells; read-out: IC50 of DTX on PC3-TxR, DTX + 25 μg/ml PIP",5.5 nM
same,IC50,"PC3-TxR cells; read-out: IC50 of DTX on PC3-TxR, DTX alone",41.4 nM
same,cell uptake of DTX,"P-gp; DTX 1 μM, absence of PIP",0.35 ± 0.05 nmol/min/mg protein
same,cell uptake of DTX,"P-gp; DTX 5 μM, absence of PIP",2.44 ± 0.14 nmol/min/mg protein
same,cell uptake of DTX,"P-gp; DTX 5 μM, after pre-incubation with PIP",3.57 ± 0.75 nmol/min/mg protein
same,cell uptake of DTX,"P-gp; DTX 10 μM, absence of PIP",3.30 ± 0.38 nmol/min/mg protein
same,cell uptake of DTX,"P-gp; DTX 10 μM, after pre-incubation with PIP",5.20 ± 0.53 nmol/min/mg protein
CC(=O)N1CCN(c2ccc(OCC3COC(Cn4ccnc4)(c4ccc(Cl)cc4Cl)O3)cc2)CC1 (stereo not shown) [Ketoconazole],reduction of the clearance of DTX,[3],49%
